Our source for the AC50 values is ChEMBL document CHEMBL5291721, “A preclinical secondary pharmacology resource illuminates target-adverse drug reaction associations of marketed drugs” (Nat Commun, 2023).

Some targets named below: Vasopressin V1a receptor (Homo sapiens, UniProt P37288); Glucagon receptor (Homo sapiens, UniProt P47871); Cannabinoid receptor 1 (Homo sapiens, UniProt P21554); D(1A) dopamine receptor (Homo sapiens, UniProt P21728); D(3) dopamine receptor (Homo sapiens, UniProt P35462).
In a further assay the target is T1, Progesterone receptor (Homo sapiens, UniProt P06401).
T1 sequence (P06401 whole entry): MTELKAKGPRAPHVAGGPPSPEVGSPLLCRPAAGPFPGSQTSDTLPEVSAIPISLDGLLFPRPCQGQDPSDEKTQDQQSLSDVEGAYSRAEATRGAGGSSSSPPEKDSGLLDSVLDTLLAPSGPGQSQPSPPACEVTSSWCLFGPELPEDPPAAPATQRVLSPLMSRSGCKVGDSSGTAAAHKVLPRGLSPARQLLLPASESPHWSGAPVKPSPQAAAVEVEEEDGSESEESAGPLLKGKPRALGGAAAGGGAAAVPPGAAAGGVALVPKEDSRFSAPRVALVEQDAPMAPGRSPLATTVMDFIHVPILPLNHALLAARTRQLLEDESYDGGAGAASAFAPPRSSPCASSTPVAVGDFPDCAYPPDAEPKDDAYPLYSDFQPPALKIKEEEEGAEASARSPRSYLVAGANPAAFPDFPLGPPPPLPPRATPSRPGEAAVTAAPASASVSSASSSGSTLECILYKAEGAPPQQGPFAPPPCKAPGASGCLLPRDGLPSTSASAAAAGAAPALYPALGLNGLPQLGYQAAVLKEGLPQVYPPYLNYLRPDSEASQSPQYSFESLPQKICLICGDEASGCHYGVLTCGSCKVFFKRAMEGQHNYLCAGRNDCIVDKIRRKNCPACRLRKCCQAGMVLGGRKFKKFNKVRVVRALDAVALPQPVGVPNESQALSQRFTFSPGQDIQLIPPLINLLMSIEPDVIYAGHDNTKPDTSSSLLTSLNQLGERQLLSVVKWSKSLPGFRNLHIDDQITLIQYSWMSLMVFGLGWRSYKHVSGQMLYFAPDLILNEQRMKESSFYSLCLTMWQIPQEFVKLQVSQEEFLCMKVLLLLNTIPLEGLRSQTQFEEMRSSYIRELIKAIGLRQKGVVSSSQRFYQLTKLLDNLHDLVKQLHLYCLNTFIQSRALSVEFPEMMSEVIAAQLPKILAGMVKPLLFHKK

For assay [1], the target named is 5-hydroxytryptamine receptor 7 (Homo sapiens, UniProt P34969).
Chain of 5-hydroxytryptamine receptor 7 (P34969 whole entry): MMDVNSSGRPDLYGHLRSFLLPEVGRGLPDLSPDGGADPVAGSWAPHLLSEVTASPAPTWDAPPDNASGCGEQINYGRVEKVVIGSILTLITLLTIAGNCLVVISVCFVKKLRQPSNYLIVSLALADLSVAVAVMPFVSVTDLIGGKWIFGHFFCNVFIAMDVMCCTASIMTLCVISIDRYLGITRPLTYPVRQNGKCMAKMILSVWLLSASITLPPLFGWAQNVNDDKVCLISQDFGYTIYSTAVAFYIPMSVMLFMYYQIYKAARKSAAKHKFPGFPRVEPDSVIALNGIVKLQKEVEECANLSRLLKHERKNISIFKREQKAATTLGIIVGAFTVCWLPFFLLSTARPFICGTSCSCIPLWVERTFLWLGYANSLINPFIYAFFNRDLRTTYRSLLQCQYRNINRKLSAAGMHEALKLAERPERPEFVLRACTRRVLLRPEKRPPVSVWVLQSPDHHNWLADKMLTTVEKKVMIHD
In the next assay the target is T2, Thromboxane A2 receptor (Homo sapiens, UniProt P21731).
T2 sequence (P21731 whole entry): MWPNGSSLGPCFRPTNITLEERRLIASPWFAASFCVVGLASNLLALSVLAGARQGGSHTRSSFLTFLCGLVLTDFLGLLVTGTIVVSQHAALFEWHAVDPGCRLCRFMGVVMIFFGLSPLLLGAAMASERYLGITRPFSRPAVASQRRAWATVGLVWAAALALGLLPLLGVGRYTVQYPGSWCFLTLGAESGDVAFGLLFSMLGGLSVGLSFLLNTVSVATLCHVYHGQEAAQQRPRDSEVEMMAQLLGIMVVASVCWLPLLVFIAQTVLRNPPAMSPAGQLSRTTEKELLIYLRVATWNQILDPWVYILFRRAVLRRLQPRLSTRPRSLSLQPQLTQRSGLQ

Assay [2] has as its target T3, Gastrin/cholecystokinin type B receptor (Homo sapiens, UniProt P32239).
T3 sequence (P32239 whole entry): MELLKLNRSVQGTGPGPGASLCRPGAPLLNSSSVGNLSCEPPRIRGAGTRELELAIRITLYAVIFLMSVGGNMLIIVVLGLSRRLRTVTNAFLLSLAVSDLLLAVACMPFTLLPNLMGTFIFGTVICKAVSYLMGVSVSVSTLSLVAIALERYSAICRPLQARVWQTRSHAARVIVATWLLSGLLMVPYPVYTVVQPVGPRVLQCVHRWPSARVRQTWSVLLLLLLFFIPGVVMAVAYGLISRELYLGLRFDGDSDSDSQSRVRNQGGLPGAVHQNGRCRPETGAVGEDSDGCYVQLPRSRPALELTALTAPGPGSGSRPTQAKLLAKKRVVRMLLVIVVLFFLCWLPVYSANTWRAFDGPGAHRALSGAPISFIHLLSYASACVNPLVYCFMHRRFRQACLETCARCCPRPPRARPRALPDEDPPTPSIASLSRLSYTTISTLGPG

Assay [3] has as its target T4, Alpha-1A adrenergic receptor (Homo sapiens, UniProt P35348).
T4 sequence (P35348 whole entry): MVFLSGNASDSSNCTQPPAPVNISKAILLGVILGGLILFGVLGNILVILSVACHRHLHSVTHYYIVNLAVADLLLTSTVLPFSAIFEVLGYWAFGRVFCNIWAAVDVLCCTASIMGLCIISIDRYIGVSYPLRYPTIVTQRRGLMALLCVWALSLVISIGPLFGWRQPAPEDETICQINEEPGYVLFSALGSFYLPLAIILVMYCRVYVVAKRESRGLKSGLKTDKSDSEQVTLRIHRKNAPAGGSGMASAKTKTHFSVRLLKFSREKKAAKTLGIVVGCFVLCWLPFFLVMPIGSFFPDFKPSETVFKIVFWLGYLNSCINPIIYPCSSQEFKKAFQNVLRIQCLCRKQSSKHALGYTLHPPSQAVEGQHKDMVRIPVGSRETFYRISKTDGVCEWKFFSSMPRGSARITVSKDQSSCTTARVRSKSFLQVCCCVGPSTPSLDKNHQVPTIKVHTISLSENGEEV
Type of assay: functional, cell-based.

In assay [4] the target is 5-hydroxytryptamine receptor 6 (Homo sapiens, UniProt P50406).
Chain of 5-hydroxytryptamine receptor 6 (P50406 whole entry): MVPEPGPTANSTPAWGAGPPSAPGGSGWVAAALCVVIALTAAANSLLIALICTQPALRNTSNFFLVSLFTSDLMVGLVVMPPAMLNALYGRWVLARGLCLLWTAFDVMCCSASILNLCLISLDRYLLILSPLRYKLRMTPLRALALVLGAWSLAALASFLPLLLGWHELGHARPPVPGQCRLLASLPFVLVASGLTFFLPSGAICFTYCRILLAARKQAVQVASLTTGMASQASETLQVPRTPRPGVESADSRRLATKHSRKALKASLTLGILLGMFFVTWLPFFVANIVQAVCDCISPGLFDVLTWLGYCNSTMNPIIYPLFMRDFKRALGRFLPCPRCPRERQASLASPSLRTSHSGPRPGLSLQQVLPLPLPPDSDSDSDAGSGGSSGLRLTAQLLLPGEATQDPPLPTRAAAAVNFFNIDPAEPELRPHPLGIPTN
For assay [5], the target named is Gamma-aminobutyric acid receptor subunit alpha-1/alpha-2/beta-2/gamma-2 (Homo sapiens, UniProt P14867+P18507+P47869+P47870). Type of assay: functional, cell-based.
Further: assay procedure not described here.

Chain of D(3) dopamine receptor (P35462 whole entry): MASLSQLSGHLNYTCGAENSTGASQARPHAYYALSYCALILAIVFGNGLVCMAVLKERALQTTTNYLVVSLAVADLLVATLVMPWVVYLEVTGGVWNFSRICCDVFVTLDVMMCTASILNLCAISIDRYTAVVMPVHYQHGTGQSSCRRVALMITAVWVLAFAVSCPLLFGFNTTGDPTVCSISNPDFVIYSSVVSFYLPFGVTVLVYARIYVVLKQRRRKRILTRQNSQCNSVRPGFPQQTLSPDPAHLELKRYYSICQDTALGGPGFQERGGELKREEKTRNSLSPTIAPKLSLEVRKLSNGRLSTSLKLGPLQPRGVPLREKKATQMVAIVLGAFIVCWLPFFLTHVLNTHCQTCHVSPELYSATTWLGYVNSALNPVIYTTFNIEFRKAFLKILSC
Chain of Vasopressin V1a receptor (P37288 whole entry): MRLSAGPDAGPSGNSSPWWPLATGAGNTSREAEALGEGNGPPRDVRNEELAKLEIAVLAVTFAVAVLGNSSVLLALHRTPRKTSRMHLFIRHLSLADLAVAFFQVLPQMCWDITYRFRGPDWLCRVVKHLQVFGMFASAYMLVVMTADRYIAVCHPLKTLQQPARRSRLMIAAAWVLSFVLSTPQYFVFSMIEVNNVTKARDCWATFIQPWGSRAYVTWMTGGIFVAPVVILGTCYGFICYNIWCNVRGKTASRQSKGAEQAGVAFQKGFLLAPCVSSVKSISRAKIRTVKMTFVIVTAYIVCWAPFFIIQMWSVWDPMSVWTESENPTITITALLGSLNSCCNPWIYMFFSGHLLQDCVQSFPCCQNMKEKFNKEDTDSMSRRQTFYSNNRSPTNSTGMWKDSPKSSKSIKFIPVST
Chain of D(1A) dopamine receptor (P21728 whole entry): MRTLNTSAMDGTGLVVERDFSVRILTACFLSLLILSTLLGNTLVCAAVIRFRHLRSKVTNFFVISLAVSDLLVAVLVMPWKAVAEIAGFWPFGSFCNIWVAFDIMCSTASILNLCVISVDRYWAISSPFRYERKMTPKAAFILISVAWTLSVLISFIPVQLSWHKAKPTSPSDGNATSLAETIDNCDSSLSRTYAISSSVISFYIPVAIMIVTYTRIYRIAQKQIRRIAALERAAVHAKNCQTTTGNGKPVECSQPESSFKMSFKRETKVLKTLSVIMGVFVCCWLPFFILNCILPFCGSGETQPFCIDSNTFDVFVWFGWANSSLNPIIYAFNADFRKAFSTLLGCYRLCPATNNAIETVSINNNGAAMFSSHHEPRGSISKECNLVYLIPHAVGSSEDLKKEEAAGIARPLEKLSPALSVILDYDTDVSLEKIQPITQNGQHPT
Chain of Glucagon receptor (P47871 whole entry): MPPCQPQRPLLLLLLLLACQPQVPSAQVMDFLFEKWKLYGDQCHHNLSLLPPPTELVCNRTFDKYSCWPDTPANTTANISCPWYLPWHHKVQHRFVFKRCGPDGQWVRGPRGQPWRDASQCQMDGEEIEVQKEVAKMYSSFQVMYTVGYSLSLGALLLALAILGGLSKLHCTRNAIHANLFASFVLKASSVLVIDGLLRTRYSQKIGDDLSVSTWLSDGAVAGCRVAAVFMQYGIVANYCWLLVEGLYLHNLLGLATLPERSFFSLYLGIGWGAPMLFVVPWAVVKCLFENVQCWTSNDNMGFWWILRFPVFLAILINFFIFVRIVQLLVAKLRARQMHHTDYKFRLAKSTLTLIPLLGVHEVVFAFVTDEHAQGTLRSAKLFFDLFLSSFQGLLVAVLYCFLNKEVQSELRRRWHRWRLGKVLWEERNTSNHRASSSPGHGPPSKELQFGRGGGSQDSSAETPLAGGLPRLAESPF
Chain of Cannabinoid receptor 1 (P21554 whole entry): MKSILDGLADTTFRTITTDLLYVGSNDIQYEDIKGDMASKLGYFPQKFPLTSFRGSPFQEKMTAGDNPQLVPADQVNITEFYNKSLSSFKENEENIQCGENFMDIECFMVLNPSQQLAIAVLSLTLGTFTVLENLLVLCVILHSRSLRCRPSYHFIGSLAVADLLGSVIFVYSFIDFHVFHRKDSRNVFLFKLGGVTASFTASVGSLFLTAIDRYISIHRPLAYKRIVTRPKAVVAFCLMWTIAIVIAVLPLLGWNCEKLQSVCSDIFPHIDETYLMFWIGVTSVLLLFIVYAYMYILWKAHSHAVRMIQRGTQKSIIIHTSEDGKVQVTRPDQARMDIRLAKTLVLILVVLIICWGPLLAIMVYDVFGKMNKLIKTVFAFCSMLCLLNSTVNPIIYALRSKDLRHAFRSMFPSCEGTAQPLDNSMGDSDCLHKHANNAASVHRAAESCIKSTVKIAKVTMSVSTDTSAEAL

Broadly, the AC50 is the concentration at which the activity in the assay is half-maximal. As to `CCc1nn(CCCN2CCN(c3cccc(Cl)c3)CC2)c(=O)n1CCOc1ccccc1` [NEFAZODONE], the AC50 on Progesterone receptor was more than 30 µM; in assay [1] it was 0.237 µM; on Vasopressin V1a receptor, more than 10 µM; on Glucagon receptor, more than 30 µM; at Thromboxane A2 receptor, 23.9 µM; in assay [2] it was more than 30 µM. The values for the AC50 in [3] and in assay [4] were 2.2 µM and 0.808 µM, respectively.

Turning to `NC(N)=Nc1nc(CSCCC(N)=NS(N)(=O)=O)cs1` [FAMOTIDINE], the AC50 was more than 30 µM on Progesterone receptor; more than 10 µM in [1]; more than 10 µM on Vasopressin V1a receptor; more than 30 µM at Glucagon receptor; more than 30 µM at Thromboxane A2 receptor; more than 10 µM on Cannabinoid receptor 1. In addition, the half-maximal activity concentration (AC50) in [2] is more than 30 µM; in assay [3], more than 30 µM; in [4] it was more than 10 µM; on D(1A) dopamine receptor, more than 10 µM.

With `NS(=O)(=O)c1cc2c(cc1Cl)NCNS2(=O)=O` [HYDROCHLOROTHIAZIDE], the concentration at half-maximal activity (AC50) is more than 30 µM on Progesterone receptor; more than 10 µM in assay [1]; more than 10 µM at Vasopressin V1a receptor; more than 30 µM on Glucagon receptor; more than 30 µM at Thromboxane A2 receptor; more than 10 µM at Cannabinoid receptor 1. For the same compound, the results for the AC50 (in assay [2]; in assay [4]; at D(1A) dopamine receptor) were more than 30 µM, more than 10 µM and more than 10 µM, respectively.

On to `CCOC(=O)[C@H](CCc1ccccc1)N[C@@H](C)C(=O)N1CCC[C@H]1C(=O)O`, for which the AC50 in [1] was more than 10 µM; on Vasopressin V1a receptor, more than 10 µM; on Glucagon receptor it was more than 30 µM; on Thromboxane A2 receptor it was more than 30 µM; at Cannabinoid receptor 1 it was more than 10 µM; in [2] it was more than 30 µM. In addition, the concentration at half-maximal activity (AC50) in [3] is more than 30 µM; in assay [4] it was more than 10 µM; at D(1A) dopamine receptor, more than 10 µM.

On to `CCc1ccc(CCOc2ccc(CC3SC(=O)NC3=O)cc2)nc1` (stereo not given) [PIOGLITAZONE], for which the concentration at half-maximal activity (AC50) on Progesterone receptor is more than 30 µM; in assay [1], more than 10 µM; on Vasopressin V1a receptor it was more than 30 µM; on Glucagon receptor, more than 30 µM; on Thromboxane A2 receptor it was more than 30 µM; in [2], more than 30 µM. The values for the AC50 (in assay [4]; on D(1A) dopamine receptor; on D(3) dopamine receptor) were more than 10 µM, more than 10 µM and more than 30 µM, respectively.

Take `Nc1nc(N)c2nc(-c3ccccc3)c(N)nc2n1`: the AC50 was more than 30 µM at Progesterone receptor; more than 10 µM in assay [1]; more than 30 µM at Vasopressin V1a receptor; more than 30 µM at Glucagon receptor; more than 30 µM on Thromboxane A2 receptor; more than 30 µM at Cannabinoid receptor 1. Also, the half-maximal activity concentration (AC50) in assay [2] is more than 30 µM; in [3], more than 30 µM; in [4], more than 10 µM; at D(1A) dopamine receptor it was more than 10 µM; on D(3) dopamine receptor, more than 30 µM.

Consider `COc1cc(Nc2c(C#N)cnc3cc(OCCCN4CCN(C)CC4)c(OC)cc23)c(Cl)cc1Cl` [BOSUTINIB], for which the AC50 is more than 30 µM on Progesterone receptor; more than 10 µM in [1]; 4.7 µM on Vasopressin V1a receptor; more than 30 µM at Glucagon receptor; more than 30 µM at Thromboxane A2 receptor; more than 10 µM at Cannabinoid receptor 1. For the same compound, the concentration at half-maximal activity (AC50) is more than 30 µM in [2], more than 10 µM in [4], more than 10 µM on D(1A) dopamine receptor and 3.01 µM at D(3) dopamine receptor.

As to `NC(=O)c1cnccn1` [PYRAZINAMIDE], the AC50 at Progesterone receptor is more than 30 µM; in assay [1], more than 10 µM; at Vasopressin V1a receptor it was more than 30 µM; on Glucagon receptor it was more than 30 µM; at Thromboxane A2 receptor, more than 30 µM; on Cannabinoid receptor 1, more than 30 µM. Also, the AC50 in assay [2] is more than 30 µM; in assay [3], more than 30 µM; in assay [4] it was more than 10 µM; on D(1A) dopamine receptor, more than 10 µM; at D(3) dopamine receptor, more than 30 µM.

On to `COc1cc2c(cc1OC)C(=O)C(CC1CCN(Cc3ccccc3)CC1)C2` (stereo not given) [DONEPEZIL], for which the half-maximal activity concentration (AC50) was more than 30 µM on Progesterone receptor; more than 10 µM in assay [1]; more than 30 µM on Vasopressin V1a receptor; more than 30 µM on Glucagon receptor; more than 30 µM on Thromboxane A2 receptor; more than 10 µM on Cannabinoid receptor 1. In addition, the half-maximal activity concentration (AC50) was more than 30 µM in [2], more than 10 µM in assay [4] and more than 10 µM on D(1A) dopamine receptor.

In the case of `COC(=O)[C@@H]1CC2=CC(=O)CC[C@]2(C)[C@@]23O[C@@H]2C[C@@]2(C)[C@@H](CC[C@@]24CCC(=O)O4)[C@H]13` [EPLERENONE], the AC50 was more than 30 µM on Vasopressin V1a receptor; more than 30 µM at Glucagon receptor; more than 30 µM at Thromboxane A2 receptor; more than 10 µM at Cannabinoid receptor 1; more than 30 µM in assay [2]; more than 30 µM in assay [3]. The AC50 is more than 30 µM in [5] and more than 10 µM at D(1A) dopamine receptor.

On to `C#C[C@]1(O)CC[C@H]2[C@@H]3CCc4cc(O)ccc4[C@H]3CC[C@@]21C` [ETHINYL ESTRADIOL], for which the half-maximal activity concentration (AC50) at Progesterone receptor was more than 30 µM; in assay [1], more than 30 µM; on Vasopressin V1a receptor, more than 10 µM; at Glucagon receptor, more than 30 µM; on Thromboxane A2 receptor, 15 µM; at Cannabinoid receptor 1 it was more than 10 µM. The half-maximal activity concentration (AC50) in [2] was more than 30 µM; in assay [4], more than 30 µM; at D(1A) dopamine receptor, more than 10 µM; on D(3) dopamine receptor, more than 30 µM.

Take `O=C(CCCCCCC(=O)Nc1ccccc1)NO` [VORINOSTAT]: the AC50 in assay [1] was more than 10 µM; on Vasopressin V1a receptor it was more than 30 µM; at Glucagon receptor, more than 10 µM; on Thromboxane A2 receptor, more than 30 µM; at Cannabinoid receptor 1 it was more than 10 µM; in assay [2], more than 30 µM. Also, the AC50 in assay [3] is more than 30 µM; in assay [4], more than 10 µM; in assay [5], more than 30 µM; at D(1A) dopamine receptor it was more than 10 µM.

In the case of `C[C@H]1O[C@H](O[C@H]2[C@H](O)[C@@H](O)[C@@H](O[C@H]3[C@H](O)[C@@H](O)C(O)O[C@@H]3CO)O[C@@H]2CO)[C@H](O)[C@@H](O)[C@@H]1N[C@H]1C=C(CO)[C@@H](O)[C@H](O)[C@H]1O` (stereo not given in full) [ACARBOSE], the AC50 at Progesterone receptor is more than 30 µM; in assay [1], more than 10 µM; at Vasopressin V1a receptor, more than 30 µM; at Glucagon receptor it was more than 30 µM; on Thromboxane A2 receptor, more than 30 µM; on Cannabinoid receptor 1, more than 10 µM. Also, the concentration at half-maximal activity (AC50) in assay [2] was more than 30 µM; in [3], more than 30 µM; in assay [4], more than 10 µM; at D(1A) dopamine receptor, more than 10 µM; on D(3) dopamine receptor, more than 30 µM.
